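Where inhibition never reached the appropriate level, the endpoint shown equals the highest concentration tested. Otherwise, values were interpolated linearly from a five-concentration, 48-hour dose response in 96-well plates. Abbreviation: GI50, concentration required for 50% inhibition of growth.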 Activity calls are given as the source filed them. No stated cut-off is given here; in the data, active = GI50 up to about 1.1 µM and inactive = higher.
Columns and labels:
Assay in all cases: growth of human tumour cells (NCI), 48 h
CCRF-CEM = test system: CCRF-CEM
EKVX = test system: EKVX
HCC 2998 = test system: HCC 2998
HCT-15 = test system: HCT-15
HOP-92 = test system: HOP-92
KM12 = test system: KM12
LOX IMVI = test system: LOX IMVI
Malme-3M = test system: Malme-3M
OVCAR-5 = test system: OVCAR-5
RXF 393 = test system: RXF 393
SK-MEL-5 = test system: SK-MEL-5
SNB-19 = test system: SNB-19
U-251 = test system: U-251
UACC-257 = test system: UACC-257
UO-31 = test system: UO-31

Compound | GI50 (CCRF-CEM) | GI50 (EKVX) | GI50 (HCC 2998) | GI50 (HCT-15) [µM] | GI50 (HOP-92) | GI50 (KM12) | GI50 (LOX IMVI) | GI50 (Malme-3M) | GI50 (OVCAR-5) | GI50 (RXF 393) | GI50 (SK-MEL-5) | GI50 (SNB-19) | GI50 (U-251) | GI50 (UACC-257) | GI50 (UO-31)
CC1NOC(=O)C1/N=N/c1ccc(Cl)cc1Cl (stereo not given) | 30.9 µM (inactive) | 24.6 µM (inactive) | 29.9 µM (inactive) | 18.5 | 19.8 µM (inactive) | 15.1 µM (inactive) | 27.2 µM (inactive) | 25.5 µM (inactive) | 69.7 µM (inactive) | 20.7 µM (inactive) | 25.8 µM (inactive) | 22.6 µM (inactive) | 18.5 µM (inactive) | 24.5 µM (inactive) | 24.4 µM (inactive)
CCOc1ccc(NC(=O)/C(Cc2nc3ccccc3nc2O)=N\O)cc1 | > 100 µM (inactive) | 75 µM (inactive) | > 100 µM (inactive) | > 100 | 54.2 µM (inactive) | > 100 µM (inactive) | > 100 µM (inactive) | > 100 µM (inactive) | > 100 µM (inactive) | > 100 µM (inactive) | > 100 µM (inactive) | > 100 µM (inactive) | > 100 µM (inactive) | > 100 µM (inactive) | > 100 µM (inactive)
O=C(CO[N+](=O)[O-])OCC(=O)c1ccccc1 | > 100 µM (inactive) | > 100 µM (inactive) | > 100 µM (inactive) | > 100 | > 100 µM (inactive) | > 100 µM (inactive) | > 100 µM (inactive) | > 100 µM (inactive) | > 100 µM (inactive) | > 100 µM (inactive) | – | > 100 µM (inactive) | > 100 µM (inactive) | > 100 µM (inactive) | > 100 µM (inactive)
COc1ccc(-c2cc(-c3ccccc3)c(C#N)c(=O)[nH]2)cc1 | > 100 µM (inactive) | > 100 µM (inactive) | > 100 µM (inactive) | > 100 | > 100 µM (inactive) | > 100 µM (inactive) | > 100 µM (inactive) | > 100 µM (inactive) | > 100 µM (inactive) | > 100 µM (inactive) | > 100 µM (inactive) | > 100 µM (inactive) | > 100 µM (inactive) | > 100 µM (inactive) | > 100 µM (inactive)
O=C1Nc2cc(Cl)ccc2N=CC1NC(=O)C(c1ccccc1)c1ccccc1Cl (stereo not given) | > 100 µM (inactive) | > 100 µM (inactive) | > 100 µM (inactive) | > 100 | > 100 µM (inactive) | > 100 µM (inactive) | > 100 µM (inactive) | > 100 µM (inactive) | > 100 µM (inactive) | > 100 µM (inactive) | > 100 µM (inactive) | > 100 µM (inactive) | > 100 µM (inactive) | > 100 µM (inactive) | > 100 µM (inactive)
[N-]=[N+]=CC(=O)C1(C(=O)C=[N+]=[N-])CC1 | > 100 µM (inactive) | > 100 µM (inactive) | > 100 µM (inactive) | > 100 | – | > 100 µM (inactive) | > 100 µM (inactive) | > 100 µM (inactive) | > 100 µM (inactive) | > 100 µM (inactive) | > 100 µM (inactive) | > 100 µM (inactive) | > 100 µM (inactive) | > 100 µM (inactive) | > 100 µM (inactive)
CCOC(=O)C(=Cc1ccc(C(=O)OC)cc1)C(=O)OCC | 1.58 µM (inactive) | 11.1 µM (inactive) | 4.06 µM (inactive) | 2.37 | 1.67 µM (inactive) | 2.92 µM (inactive) | 1.73 µM (inactive) | 1.8 µM (inactive) | 7.16 µM (inactive) | – | 2.05 µM (inactive) | 2.39 µM (inactive) | 1.66 µM (inactive) | – | –
CCNC(=O)C#CC(=O)NCC | > 46.1 µM (inactive) | > 100 µM (inactive) | > 100 µM (inactive) | > 42.6 | > 100 µM (inactive) | > 100 µM (inactive) | > 83.9 µM (inactive) | > 10 µM (inactive) | > 100 µM (inactive) | > 10 µM (inactive) | > 100 µM (inactive) | > 100 µM (inactive) | > 91.4 µM (inactive) | > 100 µM (inactive) | > 100 µM (inactive)
CN1CCN(CCNc2ccc(CO)c3sc4ccccc4c(=O)c23)CC1 | 4.34 µM (inactive) | – | 6.87 µM (inactive) | 6.32 | 13.4 µM (inactive) | 10.9 µM (inactive) | – | 11.5 µM (inactive) | 16.6 µM (inactive) | – | 12.7 µM (inactive) | 21 µM (inactive) | 3.11 µM (inactive) | 15.2 µM (inactive) | 14.7 µM (inactive)
CC(C)C(Nc1c2ccccc2[n+]([O-])c2ccccc12)C(=O)O (stereo not given) | 47.8 µM (inactive) | > 100 µM (inactive) | > 100 µM (inactive) | 45.9 | – | > 100 µM (inactive) | 50.9 µM (inactive) | 28.1 µM (inactive) | > 100 µM (inactive) | – | 34.2 µM (inactive) | > 100 µM (inactive) | > 100 µM (inactive) | 66.2 µM (inactive) | 55.5 µM (inactive)
